{"source": "paper PMC6915728", "about": "(Nature Communications, 2019)", "origin": "cited, not measured here", "key": {"[1]": {"tested_on": "bacterial species in which the gene showed activity", "settings": "cited from earlier work"}, "[2]": {"tested_on": "E. coli gene overexpression", "settings": "cited from earlier work", "excerpt": "Supplement 41467_2019_13618_MOESM1_ESM.docx, table 1: Supplementary Table 1. Collected examples of E. coli gene overexpression from the literature as a confirmation of our chemical-genetic screen results. | column: Overexpression phenotype"}, "[3]": {"tested_on": "AMP-evolved E. coli lines", "settings": "ref Spohn et al 2019, cited from earlier work", "excerpt": "Supplement 41467_2019_13618_MOESM13_ESM.xlsx, sheet \"Figure 6 and S15\" | column: A comprehensive dataset of antimicrobial susceptibility of AMP-adapted lines to antimicrobial peptides (AMPs)."}}, "note": "Read-outs that look alike come from different tables or passages of the source."}
{"sequence": "LLGDFFRKSKEKIGKEFKRIVQRIKDFLRNLVPRTES [LL37, LL-37 human cathelicidin, human host-defense peptide; disrupts cell membrane; cluster C2]", "values": [{"measurement": "Gene that modulates bacterial susceptibility to the AMP", "setting": "[1]; Bordetella pertussis, ref http://www.ncbi.nlm.nih.gov/pmc/articles/PMC4136009/", "result": "lgmA, IgmB, IgmC"}, {"measurement": "Gene that modulates bacterial susceptibility to the AMP", "setting": "[1]; Enterobacteriaceae, ref https://www.ncbi.nlm.nih.gov/pmc/articles/PMC3264287/, https://onlinelibrary.wiley.com/doi/full/10.1111/j.1348-0421.2010.00238.x, https://jb.asm.org/content/180/15/4002.full", "result": "ompT"}, {"measurement": "Gene that modulates bacterial susceptibility to the AMP", "setting": "[1]; Enterococcus faecalis, ref http://www.jbc.org/content/279/51/52820.full.pdf", "result": "sprE"}, {"measurement": "Gene that modulates bacterial susceptibility to the AMP", "setting": "[1]; Enterococcus faecalis, ref https://www.ncbi.nlm.nih.gov/pmc/articles/PMC2976315/", "result": "gelE"}, {"measurement": "Gene that modulates bacterial susceptibility to the AMP", "setting": "[1]; Group A Streptococcus pyogenes, ref http://www.ncbi.nlm.nih.gov/pmc/articles/PMC3241932/pdf/nihms218493.pdf", "result": "emm1"}, {"measurement": "Gene that modulates bacterial susceptibility to the AMP", "setting": "[1]; Neisseria meningitidis, gene siaC, ref http://jb.asm.org/content/191/12/3861.full.pdf+html", "result": "siaC"}, {"measurement": "Gene that modulates bacterial susceptibility to the AMP", "setting": "[1]; Neisseria meningitidis, gene siaD, ref http://jb.asm.org/content/191/12/3861.full.pdf+html", "result": "siaD"}, {"measurement": "Gene that modulates bacterial susceptibility to the AMP", "setting": "[1]; Proteus mirabilis, ref http://www.ncbi.nlm.nih.gov/pmc/articles/PMC517467/pdf/0713-04.pdf", "result": "zapA"}, {"measurement": "Gene that modulates bacterial susceptibility to the AMP", "setting": "[1]; Pseudomonas aeruginosa, ref http://portal.research.lu.se/portal/files/2657079/623699.pdf", "result": "lasA, IsaB"}, {"measurement": "Gene that modulates bacterial susceptibility to the AMP", "setting": "[1]; Salmonella typhimurium, Escherichia coli, ref https://www.ncbi.nlm.nih.gov/pmc/articles/PMC3037666/, https://www.ncbi.nlm.nih.gov/pmc/articles/PMC4808223/", "result": "amiA, amiC"}, {"measurement": "Gene that modulates bacterial susceptibility to the AMP", "setting": "[1]; Salmonella typhimurium, ref http://www.sciencedirect.com/science/article/pii/S1368764616300024", "result": "waaY"}, {"measurement": "Gene that modulates bacterial susceptibility to the AMP", "setting": "[1]; Staphylococcus aureus, ref http://aac.asm.org/content/48/12/4673.full.pdf+html", "result": "aur (aureolysin)"}, {"measurement": "Gene that modulates bacterial susceptibility to the AMP", "setting": "[1]; Staphylococcus aureus, ref http://onlinelibrary.wiley.com/doi/10.1111/j.1365-2958.2007.05986.x/epdf", "result": "apsS"}, {"measurement": "Gene that modulates bacterial susceptibility to the AMP", "setting": "[1]; Streptococcus pyogenes, ref http://www.jbc.org/content/279/51/52820.full.pdf", "result": "speB"}, {"measurement": "Gene that modulates bacterial susceptibility to the AMP", "setting": "[1]", "result": "pgtE and pla"}, {"measurement": "Overexpression phenotype, Literature", "setting": "[2]; gene marA overexpressed, ref 3 (Warner & Levy 2010)", "result": "Resistance^3"}, {"measurement": "Overexpression phenotype, Literature", "setting": "[2]; gene ompT overexpressed, ref 4 (Stumpe et al. 1998)", "result": "Resistance^4"}, {"measurement": "Relative change in MIC (MIC of the AMP-adpated line / MIC of the ancestral strain)", "setting": "[3]; AMP-adapted line BAC5_3", "result": 1}, {"measurement": "Relative change in MIC (MIC of the AMP-adpated line / MIC of the ancestral strain)", "setting": "[3]; AMP-adapted line BAC5_5", "result": 1.2}, {"measurement": "Relative change in MIC (MIC of the AMP-adpated line / MIC of the ancestral strain)", "setting": "[3]; AMP-adapted line BAC5_7", "result": 1.1}, {"measurement": "Relative change in MIC (MIC of the AMP-adpated line / MIC of the ancestral strain)", "setting": "[3]; AMP-adapted line BAC5_10", "result": 1.1}, {"measurement": "Relative change in MIC (MIC of the AMP-adpated line / MIC of the ancestral strain)", "setting": "[3]; AMP-adapted line CAP18_2", "result": 6.3}, {"measurement": "Relative change in MIC (MIC of the AMP-adpated line / MIC of the ancestral strain)", "setting": "[3]; AMP-adapted line CAP18_5", "result": 3.7}, {"measurement": "Relative change in MIC (MIC of the AMP-adpated line / MIC of the ancestral strain)", "setting": "[3]; AMP-adapted line CAP18_6", "result": 1.2}, {"measurement": "Relative change in MIC (MIC of the AMP-adpated line / MIC of the ancestral strain)", "setting": "[3]; AMP-adapted line CAP18_8", "result": 6.3}, {"measurement": "Relative change in MIC (MIC of the AMP-adpated line / MIC of the ancestral strain)", "setting": "[3]; AMP-adapted line CAP18_10", "result": 8.2}, {"measurement": "Relative change in MIC (MIC of the AMP-adpated line / MIC of the ancestral strain)", "setting": "[3]; AMP-adapted line HBD3_3", "result": 1.7}, {"measurement": "Relative change in MIC (MIC of the AMP-adpated line / MIC of the ancestral strain)", "setting": "[3]; AMP-adapted line HBD3_6", "result": 1.2}, {"measurement": "Relative change in MIC (MIC of the AMP-adpated line / MIC of the ancestral strain)", "setting": "[3]; AMP-adapted line HBD3_8", "result": 1.7}, {"measurement": "Relative change in MIC (MIC of the AMP-adpated line / MIC of the ancestral strain)", "setting": "[3]; AMP-adapted line HBD3_10", "result": 1.7}, {"measurement": "Relative change in MIC (MIC of the AMP-adpated line / MIC of the ancestral strain)", "setting": "[3]; AMP-adapted line PEX_1", "result": 1.1}, {"measurement": "Relative change in MIC (MIC of the AMP-adpated line / MIC of the ancestral strain)", "setting": "[3]; AMP-adapted line PEX_4", "result": 16}, {"measurement": "Relative change in MIC (MIC of the AMP-adpated line / MIC of the ancestral strain)", "setting": "[3]; AMP-adapted line PEX_5", "result": 0.9}, {"measurement": "Relative change in MIC (MIC of the AMP-adpated line / MIC of the ancestral strain)", "setting": "[3]; AMP-adapted line PEX_6", "result": 1}, {"measurement": "Relative change in MIC (MIC of the AMP-adpated line / MIC of the ancestral strain)", "setting": "[3]; AMP-adapted line PEX_7", "result": 1}, {"measurement": "Relative change in MIC (MIC of the AMP-adpated line / MIC of the ancestral strain)", "setting": "[3]; AMP-adapted line PR39_1", "result": 1.2}, {"measurement": "Relative change in MIC (MIC of the AMP-adpated line / MIC of the ancestral strain)", "setting": "[3]; AMP-adapted line PR39_2", "result": 1.2}, {"measurement": "Relative change in MIC (MIC of the AMP-adpated line / MIC of the ancestral strain)", "setting": "[3]; AMP-adapted line PR39_5", "result": 0.9}, {"measurement": "Relative change in MIC (MIC of the AMP-adpated line / MIC of the ancestral strain)", "setting": "[3]; AMP-adapted line PR39_7", "result": 1}, {"measurement": "Relative change in MIC (MIC of the AMP-adpated line / MIC of the ancestral strain)", "setting": "[3]; AMP-adapted line PR39_10", "result": 0.8}, {"measurement": "Relative change in MIC (MIC of the AMP-adpated line / MIC of the ancestral strain)", "setting": "[3]; AMP-adapted line PROA_2", "result": 1}, {"measurement": "Relative change in MIC (MIC of the AMP-adpated line / MIC of the ancestral strain)", "setting": "[3]; AMP-adapted line PROA_3", "result": 0.8}, {"measurement": "Relative change in MIC (MIC of the AMP-adpated line / MIC of the ancestral strain)", "setting": "[3]; AMP-adapted line PROA_7", "result": 0.9}, {"measurement": "Relative change in MIC (MIC of the AMP-adpated line / MIC of the ancestral strain)", "setting": "[3]; AMP-adapted line PROA_8", "result": 1}, {"measurement": "Relative change in MIC (MIC of the AMP-adpated line / MIC of the ancestral strain)", "setting": "[3]; AMP-adapted line PROA_9", "result": 0.9}, {"measurement": "Relative change in MIC (MIC of the AMP-adpated line / MIC of the ancestral strain)", "setting": "[3]; AMP-adapted line PXB_2", "result": 1}, {"measurement": "Relative change in MIC (MIC of the AMP-adpated line / MIC of the ancestral strain)", "setting": "[3]; AMP-adapted line PXB_5", "result": 0.9}, {"measurement": "Relative change in MIC (MIC of the AMP-adpated line / MIC of the ancestral strain)", "setting": "[3]; AMP-adapted line PXB_6", "result": 1}, {"measurement": "Relative change in MIC (MIC of the AMP-adpated line / MIC of the ancestral strain)", "setting": "[3]; AMP-adapted line PXB_8", "result": 1}, {"measurement": "Relative change in MIC (MIC of the AMP-adpated line / MIC of the ancestral strain)", "setting": "[3]; AMP-adapted line PXB_10", "result": 1}]}
